Results from US12297235B2, “Synthetic peptide compounds and methods of use” (REALTA HOLDINGS, LLC, priority 2015, dated 2025).
“Also recorded” adds a separate entry of the source. Read-outs that look alike come from different tables or passages of the source.

How the values were obtained:
[1] = 40 mg [160 mg/kg] i.v.
Text: Eight animals were sacrificed at day 3, and ten were sacrificed at day 14.

[2] = Single-dose toxicology, maximum deliverable dose; type: in vivo, rat; conditions: 60 mg [240 mg/kg] i.v.
[3] = Complement-mediated hemolysis of type B erythrocytes by type O donor plasma (ATR in vitro model); type: biochemical, human; conditions: highly hemolytic type-O plasma, dose-response, maximum
Procedure: Plasma from both donors were diluted with GVBS++ (veronal buffered saline with 0.1% gelatin, 0.15 mM CaCl2 and 1 mM MgCl2) and incubated with purified erythrocytes from a B+ donor at 37° C. for 1 hour. Free hemoglobin was measured by spectrophotometer at 412 nm.

[4] = type: biochemical, human; conditions: 0.77 mM peptide in factor B-depleted serum; standardized to water or DMSO; Table 6
Procedure: (§1) Peptides were diluted to 0.77 mM in factor B-depleted human sera (Complement Technologies, Inc.) and incubated for 1 hour at 37° C. These peptides were then diluted with GVBS^++ to equal 2.5% serum, of which 0.25 ml was combined with 0.4 ml of GVBS^++ and 0.1 ml of sensitized sheep red blood cells (RBCs) and again incubated for 1 hour at 37° C. The procedure was stopped by the addition of 4.0 ml of GVBS^−− centrifuged for 5 minutes at 1,620×g, and the absorbance of the supernatants was read at 412 nm in a spectrophotometer. The percent lysis of each sample was standardized to that of the serum only control.
(§2) The final concentration of peptide in factor B-depleted serum was 0.77 mM. Each peptide was evaluated in triplicate and the mean values are reported. […] In the hemolytic assay, soluble peptides are standardized to water and insoluble peptides standardized to DMSO.
(§3) Polar Assortant peptides were serially diluted in undiluted factor B-depleted human sera (Complement Technologies, Inc.) and incubated for 1 hour at 37° C. Water, GVBS^++ and DMSO were included as controls. These peptides were then diluted with GVBS^++ to equal 2.5% serum, of which 0.25 ml was combined with 0.4 ml of GVBS^++ and 0.1 ml of sensitized sheep red blood cells (RBCs) and again incubated for 1 hour at 37° C. The procedure was stopped by the addition of 4.0 ml of GVBS^−−, centrifuged for 5 minutes at 1,620×g, and the absorbance of the supernatants was read at 412 nm in a spectrophotometer. The percent lysis of each sample was standardized to that of the serum only control.
(§4) The final concentration of peptide in factor B-depleted serum was 0.77 mM. […] In the hemolytic assay, soluble peptides were standardized to water and insoluble peptides standardized to DMSO.
(§5) The final concentration of peptide in factor B-depleted serum was 0.77 mM. […] In the hemolytic assay, soluble peptides are standardized to water and insoluble peptides standardized to DMSO.

[5] = system: complement activation in factor B-depleted human sera; type: biochemical; conditions: 0.77 mM peptide in factor B-depleted serum; standardized to water or DMSO; Table 7
Procedure: as §1, §2, §3, §4, §5

Solubility in water = type: physicochemical; conditions: Table 7, PEGylated and Sar/Ala substitution peptides
[6] = system: complement-mediated hemolysis of transfused huRBCs; assay: Rat AIHTR model, xenotransfusion of human RBCs; type: in vivo, Wistar rat; conditions: prophylaxis; 40 mg PA-dPEG24 vs NS at 5 and 20 minutes (P≤0.05); CVF 130 μg i.p. 24 hours before
Procedure: This process generates 1 ml huRBCs at 80% hematocrit, which was given as a 15% transfusion to the rats.
For both experiments, animals allotted to the saline control group received NS prior to huRBC transfusion whereas the CVF group received 130 μg CVF (Complement Technologies, Inc.) intra-peritoneum (LP.) 24 hours prior to the huRBC transfusion.
Using weight-based doses of ketamine and acepromazine, animals were sedated throughout the course of the experiment with periodic monitoring of vital signs. Blood samples were collected into EDTA microtainer tubes (BD) from the animals prior to the huRBC transfusion and then at 30 seconds, 5 minutes, 20 minutes, 60 minutes and 120 minutes after the huRBC transfusion. […]
Flow cytometry was performed on the collected RBCs using a FACS Calibur flow cytometer (Becton Dickinson, Franklin Lakes, NJ) with DXP 8 Color 488/637/407 Upgrade (Cytek Development, Fremont, CA). […] Data was analyzed using FlowJo X version 10.0.7r2 (FlowJo LLC, Ashland, OR). […]
For bilirubin measurements, the pre-bleed and 120 minute plasma samples from the prophylaxis (n=8) and NS (n=7) groups were analyzed for the amount of bilirubin present using the Bilirubin Assay Kit (Sigma-Aldrich, St. Louis, MO) in half the manufacturer's recommend volume. […]

[7] = system: hypoxic ischemic brain injury; type: in vivo, Wistar rat; conditions: CVF injection before ligation/hypoxia
HSV-1 = assay: HSV-1-GFP infection of CV-1 cells, flow cytometry; type: cell-based; conditions: 16 hours
Procedure: CV-1 cells were infected with HSV-1-GFP for 16 hours. Post-infection, CV-1 cells were detected by flow cytometry (FIG. 33). […] Acyclovir (the standard of care for severe HSV-1 infections) was also added as a control at the same molar ratio.

CC[C@H](C)[C@H](N)C(=O)N[C@@H](C)C(=O)N[C@@H](CC(C)C)C(=O)N[C@H](C(=O)N[C@@H](CC(C)C)C(=O)N[C@@H](CCC(=O)O)C(=O)N1CCC[C@H]1C(=O)N[C@H](C(=O)N[C@@H](CS)C(=O)N[C@@H](CS)C(=O)N[C@@H](CCC(N)=O)C(=O)N[C@@H](CCC(=O)O)C(=O)N[C@@H](CCCNC(=N)N)C(=O)N[C@@H](C)C(=O)N[C@@H](C)C(=O)NCCOCCOCCOCCOCCOCCOCCOCCOCCOCCOCCOCCOCCOCCOCCOCCOCCOCCOCCOCCOCCOCCOCCOCCOCCC(=O)O)[C@@H](C)CC)[C@@H](C)CC [PA-dPEG24]
ALT ([1]; 48 Hr (n = 8)): 62.8 U/L | AST ([1]; 48 Hr (n = 8)): 108 U/L | AlkPhos ([1]; 48 Hr (n = 8)): 104 U/L | BUN ([1]; 48 Hr (n = 8)): 17.8 mg/dL | Bilirubin ([1]; 48 Hr (n = 8)): 0.1 mg/dL | CPK ([1]; 48 Hr (n = 8)): 538 U/L | Creatinine ([1]; 48 Hr (n = 8)): 0.3 mg/dL | GGT ([1]; 48 Hr (n = 8)): 1.0 U/L | Lipase ([1]; 48 Hr (n = 8)): 11.8 U/L | Platelets ([1]; 48 Hr (n = 8)): 987 10^3/μL | RBC ([1]; 48 Hr (n = 8)): 5.8 10^6/μL | ALT ([1]; Day 14 (n = 10)): 77.4 U/L | AST ([1]; Day 14 (n = 10)): 111 U/L | AlkPhos ([1]; Day 14 (n = 10)): 115 U/L | BUN ([1]; Day 14 (n = 10)): 13.2 mg/dL | Bilirubin ([1]; Day 14 (n = 10)): 0.1 mg/dL | CPK ([1]; Day 14 (n = 10)): 592 U/L | Creatinine ([1]; Day 14 (n = 10)): 0.3 mg/dL | GGT ([1]; Day 14 (n = 10)): 1.1 U/L | Lipase ([1]; Day 14 (n = 10)): 6.4 U/L | Platelets ([1]; Day 14 (n = 10)): 825 10^3/μL | RBC ([1]; Day 14 (n = 10)): 6.6 10^6/μL | Organ histology ([1]; day 3 and day 14): no histological evidence for toxicity | Blood chemistry assay results (CBC, superchem, coagulation) ([1]; pretreatment vs day 3 or day 14): no differences | ALT ([2]; 48 Hr (n = 6)): 44.0 U/L | AST ([2]; 48 Hr (n = 6)): 69.0 U/L | AlkPhos ([2]; 48 Hr (n = 6)): 194 U/L | BUN ([2]; 48 Hr (n = 6)): 15.8 mg/dL | Bilirubin ([2]; 48 Hr (n = 6)): 0.1 mg/dL | CPK ([2]; 48 Hr (n = 6)): 142 U/L | Creatinine ([2]; 48 Hr (n = 6)): 0.3 mg/dL | GGT ([2]; 48 Hr (n = 6)): 1 U/L | Lipase ([2]; 48 Hr (n = 6)): 10.3 U/L | Platelets ([2]; 48 Hr (n = 6)): 1045 10^3/μL | RBC ([2]; 48 Hr (n = 6)): 5.3 10^6/μL | ALT ([2]; Day 7 (n = 6)): 76.3 U/L | AST ([2]; Day 7 (n = 6)): 84.3 U/L | AlkPhos ([2]; Day 7 (n = 6)): 147 U/L | BUN ([2]; Day 7 (n = 6)): 13.5 mg/dL | Bilirubin ([2]; Day 7 (n = 6)): 0.1 mg/dL | CPK ([2]; Day 7 (n = 6)): 316 U/L | Creatinine ([2]; Day 7 (n = 6)): 0.4 mg/dL | GGT ([2]; Day 7 (n = 6)): 1 U/L | Lipase ([2]; Day 7 (n = 6)): 8.5 U/L | Platelets ([2]; Day 7 (n = 6)): 623 10^3/μL | RBC ([2]; Day 7 (n = 6)): 5.8 10^6/μL | ALT ([2]; Day 14 (n = 6)): 55.8 U/L | AST ([2]; Day 14 (n = 6)): 104 U/L | AlkPhos ([2]; Day 14 (n = 6)): 154 U/L | BUN ([2]; Day 14 (n = 6)): 14.7 mg/dL | Bilirubin ([2]; Day 14 (n = 6)): 0.1 mg/dL | CPK ([2]; Day 14 (n = 6)): 580 U/L | Creatinine ([2]; Day 14 (n = 6)): 0.4 mg/dL | GGT ([2]; Day 14 (n = 6)): 1 U/L | Lipase ([2]; Day 14 (n = 6)): 9.7 U/L | Blood work (CBC and complete blood chemistry) toxicities ([2]; first 24 hours, 48 hours, day 7 or day 14): No toxicities | percent inhibition of hemolysis [3]: > 95% | hemolysis [4]: 2.99% | Hemolysis (%) [5]: 2.99% | Solubility in water (Solubility in water): Yes

cobra venom factor [CVF]
Free hemoglobin in plasma [6]: low levels of free hemoglobin | Systemic complement activity and brain injury [7]: almost completely eliminated; also recorded: almost completely attenuated brain injury

Nc1nc2c(ncn2COCCO)c(=O)[nH]1 [Acyclovir]
Inhibition of HSV-1 replication (HSV-1): never able to completely inhibit replication
